According to patent US10472599B2, “Microfluidic cell culture of patient-derived tumor cell spheroids” (Dana-Farber Cancer Institute, Inc., priority 2015, dated 2019):

How the values were obtained:
Format in all cases: cell-based, human
[1] = tested on: spheroids derived from multiple different melanoma resection specimens; test: Light microscopy of immune response in patient-derived melanoma spheroids in 3D microfluidic culture; details: pembrolizumab 250 μg/mL
Procedure: On Day 1, tumor was collected in an operating room and placed in a sterile 15 mL conical tube bathed with culture media (10% FBS with DMEM or RPMI) and stored on ice. The media was aspirated in a sterile hood and the tumor specimen gently placed in a normal 10 cm culture dish on ice. Using a scalpel, the tumor was minced into smaller pieces. A sample can optionally be exposed to strong collagenase treatment to generate single cells that can be submitted directly for flow cytometry. To the 10 cm dish containing the minced tumor was added 10 mL of collagenase solution (10 mL media, 150 μL HEPES (15 mM final concentration), 100 μL collagenase (100 U/μL stock, 1 unit/μL final concentration)). The minced tumor and collagenase mixture was subsequently transferred to a 50 mL conical tube, and then transferred to a fresh low-attachment 10 cm dish. The low-attachment dish comprising the sample was incubated at 37° C. for 30-60 minutes while checking every 15-30 minutes, as the duration of time required varies from specimen to specimen. The intended outcome of this step is to generate multicellular spheroids via a limited collagenase digestion, so the sample should not be comprised entirely of single cells. After the […] incubation period, 10 mL of fresh media was added to the dish containing the tumor sample and the contents (˜20 mL) transferred to a 50 mL conical tube. […]

[2] = tested on: spheroids derived from multiple different melanoma resection specimens; test: Luminex cytokine profiling of conditioned media from melanoma spheroid culture
Procedure: On Day 3, media was aspirated from the device and ˜200 μL media (1:1 mixture of 10% FBS-DMEM and EGM2 supplemented with growth factors per protocol) with or without treatment (e.g., anti-PD-1 monoclonal Ab) were added to each device. The devices were subsequently placed in humidified, sterile containers, and returned to 37° C. incubation.
On Day 6 (or 48-72 hours post-treatment), conditioned media was collected for cytokine analysis. Light microscopy was performed and images obtained to characterize and document spheroid dispersal and/or putative immune response, which is commonly characterized by non-pigmented cells surrounding the brown-pigmented melanoma spheroids. Media was collected from each device by aspiration using a 200 μL pipet, transferred to sterile 1.5 mL Eppendorf tubes, and frozen at −80° C. prior to submission to CMOP for multiplex cytokine/chemokine analysis. Also on Day 6, the cells present in the 3D culture device following treatment were characterized by multiple methods.
As the spheroids and co-cultured endothelial cells are bathed in media, the conditioned media was extracted from the device and luminex cytokine profiling was performed.

melanoma tumor spheroids = test: Flow cytometry immune profiling of cells extracted from the device post-treatment
Procedure: For flow cytometry, RNA sequencing analysis, or T-cell receptor (TCR) sequencing the cells were removed using collagenase (150 μL per device) after media had been removed. […] The cells in collagenase were aspirated into a 15 mL conical tube containing 4.0 mL of sterile 1× PBS and spun down for 5 minutes at 1100 rpm. The PBS wash was gently aspirated and the pellet resuspended in 1.5 mL 10% FBS-DMEM for flow cytometry. In some instances, genomic DNA is prepared from flow-sorted T lymphocytes for TCR sequencing using the ImmunoSeq platform from Adaptive Biotechnologies to evaluate T-cell receptor clonality. Clonality can be assessed in spheroids relative to bulk tumor, and in response to immune checkpoint blockade to evaluate for increased TCR clonality (indicating expansion of tumor-reactive T cell clones). For RNA sequencing, the resuspension can be performed using 1.5 mL 10% FBS-DMEM, PBS, or a compatible lysis buffer.
Additionally, although it was demonstrable by flow cytometry of melanoma tumor spheroids at baseline that they consisted of up to 20% immune cells, including T cells, dendritic cells, monocytes (not shown), the value of extracting cells from the device and repeating flow cytometry post-treatment was realized. By repeating collagenase digestion within the device and washing cells in PBS, conditions have been developed that enable repeat immune profiling. […]

## pembrolizumab
[1]; absence of anti-CD28 co-stimulation (FIG. 4A)
  immune response: observed immune response
[1]; presence of anti-CD28 co-stimulation (FIG. 4B)
  immune response: observed immune response
[2]; combination with anti-CD28 (FIG. 5)
  certain cytokines (e.g., IP10) in conditioned media: induced
[2]; following αPD1 exposure (FIG. 5)
  cytokines in conditioned media: pronounced up-regulation of multiple cytokines
Melanoma tumor spheroids; post-treatment flow cytometry (FIG. 6A)
  markers of early CD8 T cell activation such as CD69: observed increase
Melanoma tumor spheroids; post-treatment flow cytometry (FIG. 6B)
  specific immune checkpoint receptors such as TIM3: increase
